Values of other authors as cited in patent US20240139316A1, “USE OF OREGOVOMAB AND BEVACIZUMAB, PACLITAXEL, CARBOPLATIN FOR TREATMENT OF BRCA-WILD TYPE PLATINUM SENSITIVE RECURRENT” (CANARIABIO INC., priority 2021, published 2024).

What was measured:
[1] = four infusions of Oregovomab with standard six cycle carboplatin and paclitaxel, relative to carboplatin-paclitaxel alone
[2] = oregovomab alone after the initial chemotherapy treatment, advanced ovarian cancer
[3] = stage III or IV ovarian cancer after initial surgical operation; bevacizumab added to carboplatin and paclitaxel, followed by single-agent bevacizumab

Substance | overall survival (OS) [1] | progression free survival (PFS) [1] | clinical outcome [2] | Progression-free survival [3] [months]
Oregovomab | significant improvement | significant improvement | no improvements | –
bevacizumab: recombinant humanized IgG1 monoclonal antibody that selectively binds human VEGF-A | – | – | – | 18
carboplatin and paclitaxel | – | – | – | 13
